Experimental data as given in patent publication US9796706B2, “Inhibitors of Jun N-terminal kinase” (IMAGO PHARMACEUTICALS, INC., priority 2009, dated 2017).

Legend:
Format in all cases: biochemical
Details in all cases: procedures of Example 14 (TR-FRET)
JNK3 = JNK3 (Homo sapiens (Human), UniProt P53779); assay: JNK3 TR-FRET kinase assay (Example 14)
Procedure, shortened: (§1)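 Two TR-FRET formats were used for each JNK isoform. In the direct one, preactivated aJNK phosphorylated EPIW-1 at about 1 mM final ATP (RT, 15 min). Both were EDTA-quenched and read by HTRF.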

JNK1 = JNK1 (Homo sapiens (Human), UniProt P45983); assay: JNK1 TR-FRET kinase assay (Example 14)
JNK1, sequence (P45983 other isoform, or with tags, fused parts or gaps isoform P45983-2, species assumed): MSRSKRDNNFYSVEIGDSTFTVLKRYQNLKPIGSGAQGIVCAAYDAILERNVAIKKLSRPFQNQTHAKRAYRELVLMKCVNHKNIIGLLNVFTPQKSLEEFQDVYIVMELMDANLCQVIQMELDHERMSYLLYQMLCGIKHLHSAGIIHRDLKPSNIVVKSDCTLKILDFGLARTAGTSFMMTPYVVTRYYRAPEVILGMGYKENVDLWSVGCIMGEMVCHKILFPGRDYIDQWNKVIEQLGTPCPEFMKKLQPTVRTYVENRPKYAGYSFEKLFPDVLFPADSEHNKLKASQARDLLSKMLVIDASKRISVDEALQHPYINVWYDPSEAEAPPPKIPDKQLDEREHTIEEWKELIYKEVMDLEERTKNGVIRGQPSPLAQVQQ
Procedure, shortened: as §1

JNK2 = JNK2 (Homo sapiens (Human), UniProt P45984); assay: JNK2 TR-FRET kinase assay (Example 14)
JNK2, sequence (P45984 whole entry, species assumed): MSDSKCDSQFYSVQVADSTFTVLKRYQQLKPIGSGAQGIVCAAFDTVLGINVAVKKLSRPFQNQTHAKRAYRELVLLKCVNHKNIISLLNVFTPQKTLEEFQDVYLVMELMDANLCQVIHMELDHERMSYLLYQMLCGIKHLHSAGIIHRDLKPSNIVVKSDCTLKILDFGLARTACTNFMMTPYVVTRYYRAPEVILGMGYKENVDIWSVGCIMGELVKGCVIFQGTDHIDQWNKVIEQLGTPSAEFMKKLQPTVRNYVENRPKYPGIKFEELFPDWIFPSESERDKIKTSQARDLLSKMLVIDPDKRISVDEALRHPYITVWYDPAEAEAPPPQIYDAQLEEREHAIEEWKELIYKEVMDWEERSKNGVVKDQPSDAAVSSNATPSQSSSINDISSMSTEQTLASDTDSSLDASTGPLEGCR
Procedure, shortened: as §1

JNK3, sequence (P53779 whole entry, species assumed, canonical isoform): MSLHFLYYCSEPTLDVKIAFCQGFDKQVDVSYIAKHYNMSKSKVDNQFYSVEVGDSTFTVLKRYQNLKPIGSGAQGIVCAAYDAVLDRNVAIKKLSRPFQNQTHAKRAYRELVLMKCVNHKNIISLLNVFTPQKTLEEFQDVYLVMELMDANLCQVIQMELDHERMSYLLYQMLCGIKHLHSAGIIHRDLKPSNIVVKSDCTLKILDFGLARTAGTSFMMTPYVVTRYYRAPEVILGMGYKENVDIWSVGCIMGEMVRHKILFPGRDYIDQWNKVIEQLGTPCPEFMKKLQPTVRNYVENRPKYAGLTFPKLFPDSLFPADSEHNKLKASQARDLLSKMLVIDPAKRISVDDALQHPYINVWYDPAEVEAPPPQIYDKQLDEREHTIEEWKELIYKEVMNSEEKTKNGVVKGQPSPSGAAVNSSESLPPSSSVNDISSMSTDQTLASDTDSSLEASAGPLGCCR

IC50 (JNK3) | IC50 (JNK1) | IC50 (JNK2) | Compound
< 100 nM | < 100 nM | < 100 nM | Cn1cnc(-c2c(Cl)csc2NC(=O)Cn2c(=O)ccn3nc(C(F)(F)F)cc23)n1 [N-(4-chloro-3-(1-methyl-1H-1,2,4-triazol-3-yl)thiophen-2-yl)-2-(5-oxo-2-(trifluoromethyl)pyrazolo[1,5-a]pyrimidin-4(5H)-yl)acetamide]
< 100 nM | < 100 nM | < 100 nM | N#Cc1csc(NC(=O)Cn2c(=O)ccc3cc(C(F)(F)F)ccc32)c1-c1ncco1 [N-(4-cyano-3-(oxazol-2-yl)thiophen-2-yl)-2-(2-oxo-6-(trifluoromethyl)quinolin-1(2H)-yl)acetamide]
100 to 10000 nM | 100 to 10000 nM | > 10000 nM | Cc1nnc(-c2sccc2NC(=O)Cc2cccc3ccccc23)o1 [N-(2-(5-methyl-1,3,4-oxadiazol-2-yl)thiophen-3-yl)-2-(naphthalen-1-yl)acetamide]
100 to 10000 nM | 100 to 10000 nM | > 10000 nM | COc1nc(-c2sccc2NC(=O)Cc2cccc3cnccc23)cs1 [2-(isoquinolin-5-yl)-N-(2-(2-methoxythiazol-4-yl)thiophen-3-yl)acetamide]
< 100 nM | < 100 nM | 100 to 10000 nM | O=C(CN1C(=O)CCc2ncccc21)Nc1scc(Br)c1-c1nccs1 [N-(4-bromo-3-(thiazol-2-yl)thiophen-2-yl)-2-(2-oxo-3,4-dihydro-1,5-naphthyridin-1(2H)-yl)acetamide]
100 to 10000 nM | < 100 nM | 100 to 10000 nM | O=C(CN1C(=O)CCc2ccccc21)Nc1sccc1-c1ncn[nH]1 [N-(3-(1H-1,2,4-triazol-5-yl)thiophen-2-yl)-2-(2-oxo-3,4-dihydroquinolin-1(2H)-yl)acetamide]
100 to 10000 nM | 100 to 10000 nM | 100 to 10000 nM | COc1ccc(CC(=O)Nc2ccsc2-c2nc(C3CC3)n[nH]2)cc1 [N-(2-(3-cyclopropyl-1H-1,2,4-triazol-5-yl)thiophen-3-yl)-2-(4-methoxyphenyl)acetamide]
100 to 10000 nM | < 100 nM | 100 to 10000 nM | O=C(Cn1c(=O)ccc2cc(C(F)(F)F)ccc21)Nc1sc(Cl)cc1-c1ncn[nH]1 [N-(5-chloro-3-(1H-1,2,4-triazol-5-yl)thiophen-2-yl)-2-(2-oxo-6-(trifluoromethyl)quinolin-1(2H)-yl)acetamide]
100 to 10000 nM | 100 to 10000 nM | 100 to 10000 nM | O=C(Cc1ccc2ccc(C(F)(F)F)nc2c1)Nc1scc(Br)c1-c1nc[nH]n1 [N-(4-bromo-3-(1H-1,2,4-triazol-3-yl)thiophen-2-yl)-2-(2-(trifluoromethyl)quinolin-7-yl)acetamide]
< 100 nM | < 100 nM | < 100 nM | O=C(Cn1c(=O)ccc2cc(Br)ccc21)Nc1scc(Cl)c1-c1nc[nH]n1 [2-(6-bromo-2-oxoquinolin-1(2H)-yl)-N-(4-chloro-3-(1H-1,2,4-triazol-3-yl)thiophen-2-yl)acetamide]
100 to 10000 nM | < 100 nM | 100 to 10000 nM | Cc1cn2c(CC(=O)Nc3scc(Br)c3-c3ncn[nH]3)csc2n1 [N-(4-bromo-3-(1H-1,2,4-triazol-5-yl)thiophen-2-yl)-2-(6-methylimidazo[2,1-b]thiazol-3-yl)acetamide]
100 to 10000 nM | < 100 nM | 100 to 10000 nM | O=C(Cc1ccc(C(F)(F)F)c2ncccc12)Nc1scc(Cl)c1-c1ncn[nH]1 [N-(4-chloro-3-(1H-1,2,4-triazol-5-yl)thiophen-2-yl)-2-(8-(trifluoromethyl)quinolin-5-yl)acetamide]
< 100 nM | < 100 nM | < 100 nM | O=C(Cn1c(=O)ccc2nc(C(F)(F)F)ccc21)Nc1scc(Br)c1-c1ncn[nH]1 [N-(4-bromo-3-(1H-1,2,4-triazol-5-yl)thiophen-2-yl)-2-(2-oxo-6-(trifluoromethyl)-1,5-naphthyridin-1(2H)-yl)acetamide]
100 to 10000 nM | < 100 nM | 100 to 10000 nM | O=C(Cc1cccc2cc(F)cnc12)Nc1scc(Br)c1-c1nc[nH]n1 [N-(4-bromo-3-(1H-1,2,4-triazol-3-yl)thiophen-2-yl)-2-(3-fluoroquinolin-8-yl)acetamide]
> 10000 nM | > 10000 nM | > 50000 nM | COc1ccc(CC(=O)Nc2ccsc2-n2cncn2)cc1 [N-(2-(1H-1,2,4-triazol-1-yl)thiophen-3-yl)-2-(4-methoxyphenyl)acetamide]
< 100 nM | < 100 nM | 100 to 10000 nM | O=C(Cn1c(=O)ccc2c(C(F)(F)F)cccc21)Nc1scc(Br)c1-c1ncn[nH]1 [N-(4-bromo-3-(1H-1,2,4-triazol-5-yl)thiophen-2-yl)-2-(2-oxo-5-(trifluoromethyl)quinolin-1(2H)-yl)acetamide]
< 100 nM | < 100 nM | < 100 nM | O=C(Cn1c(=O)ccc2cc(OC(F)(F)F)ccc21)Nc1scc(Br)c1-c1ncn[nH]1 [N-(4-bromo-3-(1H-1,2,4-triazol-5-yl)thiophen-2-yl)-2-(2-oxo-6-(trifluoromethoxy)quinolin-1(2H)-yl)acetamide]

IC50 (JNK3) | IC50 (JNK1) | IC50 (JNK2) | Compound
< 100 nM | < 100 nM | < 100 nM | O=C(Cn1c(=O)ccc2cc(C(F)(F)F)c(F)cc21)Nc1scc(Br)c1-c1ncn[nH]1 [N-(4-bromo-3-(1H-1,2,4-triazol-5-yl)thiophen-2-yl)-2-(7-fluoro-2-oxo-6-(trifluoromethyl)quinolin-1(2H)-yl)acetamide]
< 100 nM | < 100 nM | < 100 nM | O=C(Cn1c(=O)ccc2cc(C(F)(F)F)ccc21)Nc1scc(Cl)c1-c1ncn(CCCN2CCOCC2)n1 [N-(4-chloro-3-(1-(3-morpholinopropyl)-1H-1,2,4-triazol-3-yl)thiophen-2-yl)-2-(2-oxo-6-(trifluoromethyl)quinolin-1(2H)-yl)acetamide]
100 to 10000 nM | 100 to 10000 nM | 100 to 10000 nM | COc1ccc(CC(=O)Nc2ccsc2-n2nccn2)cc1 [N-(2-(2H-1,2,3-triazol-2-yl)thiophen-3-yl)-2-(4-methoxyphenyl)acetamide]
< 100 nM | < 100 nM | < 100 nM | O=C(Cn1c(=O)ccc2cnc(C(F)(F)F)cc21)Nc1scc(Cl)c1-c1nc[nH]n1 [N-(4-chloro-3-(1H-1,2,4-triazol-3-yl)thiophen-2-yl)-2-(2-oxo-7-(trifluoromethyl)-1,6-naphthyridin-1(2H)-yl)acetamide]
100 to 10000 nM | 100 to 10000 nM | 100 to 10000 nM | COc1ccc(CC(=O)Nc2ccsc2-c2nc(C3CCCO3)n[nH]2)cc1 (stereo not drawn) [2-(4-methoxyphenyl)-N-(2-(3-(tetrahydrofuran-2-yl)-1H-1,2,4-triazol-5-yl)thiophen-3-yl)acetamide]
> 10000 nM | > 10000 nM | > 50000 nM | COc1ccc(CC(=O)Nc2ccsc2-c2c[nH]c(C)n2)cc1 [2-(4-methoxyphenyl)-N-(2-(2-methyl-1H-imidazol-4-yl)thiophen-3-yl)acetamide]
> 10000 nM | > 10000 nM | > 50000 nM | COc1ccc(CC(=O)Nc2ccsc2-c2c[nH]cn2)cc1 [N-(2-(1H-imidazol-4-yl)thiophen-3-yl)-2-(4-methoxyphenyl)-acetamide]
< 100 nM | < 100 nM | < 100 nM | O=C(Cn1c(=O)ccc2ccc(C(F)(F)F)cc21)Nc1scc(Br)c1-c1ncn[nH]1 [N-(4-bromo-3-(1H-1,2,4-triazol-5-yl)thiophen-2-yl)-2-(2-oxo-7-(trifluoromethyl)quinolin-1(2H)-yl)acetamide]
< 100 nM | < 100 nM | 100 to 10000 nM | O=C(Cn1c(=O)ccc2cc(C(F)(F)F)ccc21)Nc1ccsc1-c1cscn1 [2-(2-oxo-6-(trifluoromethyl)quinolin-1(2H)-yl)-N-(2-(thiazol-4-yl)thiophen-3-yl)acetamide]
< 100 nM | < 100 nM | 100 to 10000 nM | O=C(Cc1cncc2ccccc12)Nc1scc(Br)c1-c1nnc[nH]1 [N-(4-bromo-3-(4H-1,2,4-triazol-3-yl)thiophen-2-yl)-2-(isoquinolin-4-yl)acetamide]
> 50000 nM | > 50000 nM | > 50000 nM | Cn1ncnc1-c1sccc1NC(=O)Cc1cccc2ccccc12 [N-(2-(1-methyl-1H-1,2,4-triazol-5-yl)thiophen-3-yl)-2-(naphthalen-1-yl)acetamide]
100 to 10000 nM | 100 to 10000 nM | 100 to 10000 nM | N#Cc1csc(NC(=O)Cn2c(=O)ccc3cc(C(F)(F)F)ccc32)c1-c1cncs1 [N-(4-cyano-3-(thiazol-5-yl)thiophen-2-yl)-2-(2-oxo-6-(trifluoromethyl)quinolin-1(2H)-yl)acetamide]
< 100 nM | < 100 nM | < 100 nM | C#Cc1ccc2c(ccc(=O)n2CC(=O)Nc2scc(Br)c2-c2ncn[nH]2)c1 [N-(4-bromo-3-(1H-1,2,4-triazol-5-yl)thiophen-2-yl)-2-(6-ethynyl-2-oxoquinolin-1(2H)-yl)acetamide]
100 to 10000 nM | < 100 nM | 100 to 10000 nM | O=C(Cc1cccc2nccn12)Nc1scc(Br)c1-c1ncn[nH]1 [N-(4-bromo-3-(1H-1,2,4-triazol-5-yl)thiophen-2-yl)-2-(imidazo[1,2-a]pyridin-5-yl)acetamide]
< 100 nM | < 100 nM | 100 to 10000 nM | CN1CCN(CCCn2cnc(-c3c(Cl)csc3NC(=O)Cn3c(=O)ccc4cc(C(F)(F)F)ccc43)n2)CC1 [N-(4-chloro-3-(1-(3-(4-methylpiperazin-1-yl)propyl)-1H-1,2,4-triazol-3-yl)thiophen-2-yl)-2-(2-oxo-6-(trifluoromethyl)quinolin-1(2H)-yl)acetamide]
100 to 10000 nM | 100 to 10000 nM | > 10000 nM | O=C(CN1C(=O)CCc2ccccc21)Nc1ccsc1-c1c[nH]cn1 [N-(2-(1H-imidazol-4-yl)thiophen-3-yl)-2-(2-oxo-3,4-dihydroquinolin-1(2H)-yl)acetamide]
